Common to all, as to type: cell-based
One test deals with Micrococcus sp. As to the kind of experiment: Selective growth on BHI agar, mixture of three organisms (Example 12, FIG. 11C). As to the method:
(§1) Colonies of Micrococcus sp., Rhodotorula sp. and Saccharomyces sp. grown on brain heart infusion agar (BHI) were suspended in PBS to 0.30 OD, 580 nm. An equal volume of the three (3) organisms were combined and the mixture streaked onto plates containing BHI agar alone or BHI agar supplemented with a precursor of antibacterially-activated CRN, CEE, and incubated 48 hours at 37° C.

Test [1] deals with Rhodotorula sp. The test is described as above. As to the method: as §1
The test system of test [2] is Saccharomyces sp. Described as above. As to the method:
as §1

Another test relates to M. luteus. As to the kind of experiment: Growth in broth with CEE at different concentrations (Example 3, FIG. 2B). The conditions noted are these: broth culture, absorbance over time. The protocol: The CEE precursor of antibacterially-activated CRN was diluted at different concentrations into Lederberg's broth (LB), which was then inoculated to 10^4/mL with S. aureus. The cultures were incubated in capped plastic tubes at 37° C. and aerated by tumbling using a tube rotating device.
A similar experiment was conducted with the same precursor of antibacterially-activated CRN and tested on M. luteus.

Test [3] deals with Rhodotorula sp. As to the kind of experiment: Selective growth on LBD, mixture of S. aureus and Rhodotorula sp. (Example 12, FIG. 11B). The conditions noted are these: 200-400 mM CEE in LBD, 37° C., 36 hours. As to the method: (§2) Colonies of S. aureus and Rhodotorula sp. grown on LB agar supplemented with 1% dextrose (LBD) were suspended in PBS to 0.30 A580 nm. An equal volume of the two organisms was combined and the mixture streaked onto wells containing only LBD (None) or LBD supplemented with a precursor of antibacterially-activated CRN, CEE, and incubated at 37° C. for 36 hours.

Test [4] has as its system S. aureus. Described as above. The following applies: 37° C., 36 hours. The protocol: as §2
For test [5], the system named is S. aureus. The experiment in a line: Disc diffusion assay of creatine esters (Example 6). The conditions noted are these: approx. 50 μL anhydrous polyethylene glycol carrier with 28% by weight agent. As to the method:
Four (4) different creatine esters were prepared according to the method of U.S. Pat. No. 6,897,334 to Vennerstrom. The esters thus prepared were activated in the manner described herein to impart antibacterial activity thereto. Four (4) test formulations were prepared, each including approximately 50 μL of an anhydrous polyethylene glycol carrier containing 28% by weight of a different creatine ester. Each formulation was added to a 6 mm disc and inverted onto a brain heart infusion agar plate that was previously spread with S. aureus at 10^5 organisms per mL. Plates were incubated at 37° C. overnight and the clear zones showing inhibition of bacterial growth were measured.

The test system of another test is Bacillus subtilis. As to the kind of experiment: Disc diffusion assay, odor causing microorganisms (Example 11). The following applies: 25 mg anhydrous formulation (28% by weight) on filter disc. As to the method:
(§3) Twenty-five milligrams of an anhydrous formulation of either antibacterially-activated CRN or a precursor of antibacterially-activated CRN, CEE, was prepared as described in Example 2, applied to a filter disc and tested for inhibition of bacterial growth of several odor causing microorganisms in a standard disc diffusion assay using Eridex™ (Cargill Inc. Cedar Rapids, Iowa) or creatine monohydrate containing no antibacterial agent as controls. […] The zones of inhibition for CRN or lack thereof for control test samples for B. linens and M. luteus are illustrated in FIGS. 10A and 10B respectively.
Background: Agar diffusion results depend on both activity and mobility in agar.

Test [6] concerns Staphylococcus epidermidis. The test is described as above. The conditions noted are these: 25 mg anhydrous formulation (28% by weight) on filter disc. The protocol: as §3
The test system of another test is Brevibacterium linens. Described as above. The following applies: 25 mg anhydrous formulation (28% by weight) on filter disc. The protocol: as §3
Another test has as its system Micrococcus luteus. The description is as above. The following applies: 25 mg anhydrous formulation (28% by weight) on filter disc. As to the method:
as §3

For test [7], the system named is Pseudomonas aeruginosa laboratory strain 27853. The experiment in a line: Disc diffusion assay, CEE vs gentamicin. The following applies: P. aeruginosa laboratory strain 27853; 50 mg anhydrous topical cream with 28% by weight agent; gentamicin 10 μg disc. As to the method:
This testing involved the use of 50 mg of an anhydrous topical cream containing the antibacterial agent of the invention in an amount of 28% by weight and 10 μg of gentamicin, impregnated into a standard commercially available disc (Remel, Lenoxa Kans.).

For test [8], the system named is S. aureus. The experiment in a line: Disc diffusion assay in hydrogel carrier (Example 8). As to the method: Separate formulations of antibacterially-activated CRN and a precursor of antibacterially-activated CRN, CEE, were prepared by admixing the respective antibacterial agent with a hydrogel (Advanced Medical Solutions Ltd, UK.) in varying amounts to provide final concentrations of 1 M, 500 mM, 250 mM and 125 mM. Approximately 50 μL of each formulation at the four (4) different molar concentrations was added to a 6 mm disc and inverted onto a brain heart infusion agar plate that was previously spread with S. aureus suspended in PBS at 10^5 organisms per mL. Plates were incubated at 37° C. overnight and clear zones showing inhibition of bacterial growth were measured. The hydrogel carrier including no bacterial agent (0 mM) was used as a control.

For test [9], the system named is Saccharomyces sp. The experiment in a line: Selective growth on LBD agar, mixture of Micrococcus sp. and Saccharomyces sp. (Example 12, FIG. 11A). As to the method: Colonies of Micrococcus sp. and Saccharomyces sp. grown on LB agar supplemented with 1% dextrose (LBD) were suspended in PBS to 0.30 A580 nm. An equal volume of the two organisms was combined and the mixture streaked onto LBD agar alone or LBD containing CEE and incubated at 37 C for 24 hours.

Where [10] appears, read: 300 and 400 mM CEE in BHI agar (data not shown).
[11] abbreviates: 100 mM and 200 mM CEE in BHI agar, 48 hours, 37° C.

Turning to `CCOC(=O)CN(C)C(=N)N` [CEE, creatine ethyl ester], the “growth of Micrococcus” value in the test on Micrococcus sp. (100 mM CEE in BHI agar, 48 hours, 37° C.) is on record as “greatly retarded”; in the test with Micrococcus sp. (200 mM CEE in BHI agar, 48 hours, 37° C.), “completely inhibited”; in the test on Micrococcus sp. (setting [10]) it was “inhibited the growth of Micrococcus”. In addition, the “growth of Rhodotorula” value with Rhodotorula sp. [1] (setting [11]) is reported as “enhanced”; with Rhodotorula sp. [1] (setting [10]), “did not affect the growth”; in the test with Rhodotorula sp. [3], “did not retard growth”. The “growth of Saccharomyces” value in the test with Saccharomyces sp. [2] (setting [11]) is “enhanced”; in the test with Saccharomyces sp. [2] (setting [10]) it was “did not affect the growth”; with Saccharomyces sp. [9] (300-400 mM CEE in LBD agar (data not shown)), “supported growth of Saccharomyces”. Also, the “concentration that inhibited growth of M. luteus” value with M. luteus is given as “approximately 1 mM”. The “growth of Staphylococcus” value in the test on S. aureus [4] (100 mM CEE in LBD) is “retarded”; in the test with S. aureus [4] (200 mM CEE and greater in LBD), “completely inhibited”. The “Zone of Inhibition” value came out at 20 mm in the test with S. aureus [5]; 27 mm in [7]; 20 mm in the test with S. aureus [8] (hydrogel, 1M, approx. 50 μL). Moreover, the “ZONE OF INHIBITION” value is given as 20 mm in the test with Bacillus subtilis, 27 mm in test [6], 40 mm in the test with Brevibacterium linens and 22 mm in the test with Micrococcus luteus. For the same compound, the zone of inhibition – broadly, the size of the clear area around the sample on an inoculated plate – at 125000 µM in the test on S. aureus [8] (Staphylococcus aureus) is 7 mm. The compound further displayed a zone of inhibition at 250000 µM in the test on S. aureus [8] (Staphylococcus aureus) of 10 mm. The zone of inhibition at 500000 µM in the test with S. aureus [8] (Staphylococcus aureus) turned out to be 15 mm. Besides, the “selectivity of media for yeast over Micrococcus sp.” value in the test on Saccharomyces sp. [9] (200 mM CEE in LBD agar, 37 C, 24 hours) is “selective for Saccharomyces”.
